Assay results published in patent publication US9981950B2, “Triazoles as NR2B receptor inhibitors” (Janssen Pharmaceuticals, Inc., priority 2014, dated 2018).

How the values were obtained:
[1] = target: T1, rat NR1/NR2B receptor (Rattus norvegicus (Rat), UniProt P35439+Q00960); test: RRNR2BB: inhibition of specific binding to the rat NR1/NR2B receptor; conditions: [3H]-Ifenprodil binding, rat brain membranes, Hill-plot 2-parameter-model
Experimental: RRNR2BB—Inhibition of Specific Binding to the Rat NR1/NR2B Receptor
(§1) Male Wistar rats (180 to 200 g) were killed by suffocation in a CO2 chamber for two minutes. Whole brains without cerebellum were removed and dissected on ice, placed into closed vials and stored at −70° C.
Membrane fractions were prepared and tested using standard techniques. At the time of the assay, 1 g of the brains were placed into 25 ml of 50 mM Tris/10 mM EDTA buffer, pH=7.1, (25 vol. per g of original tissue) and was homogenized for 30 sec at 20000 U/min with an Ultraturrax T25 (Jahnke & Kunkel, IKA-Labortechnik, Staufen, Germany). The homogenate was centrifuged at 4° C. for 10 min at 48000 g (OPTIMA L-70, Beckman, Palo Alto, Calif. 94304, USA). The supernatant was discarded and the pellet was homogenized on ice for 30 sec at 20000 U/min with an Ultraturrax and again centrifuged at 48000 g for 30 minutes at 4° C. The resultant pellet was resuspended in 25 ml of 50 mM Tris/10 mM EDTA buffer, homogenized for 30 sec with an Ultraturrax, aliquoted, frozen at −70° C. and stored until use
(§2) After thawing on the day of the assay, a 5 ml membrane aliquote was centrifuged at 48000 g for 30 min at 4° C. The pellet was resuspended in 5 ml of 5 mM Tris/1 mM EDTA buffer, pH=7.4, homogenized for 30 sec at 20000 U/min with an Ultraturrax and centrifuged at 48000 g for 30 min at 4° C. This step was repeated twice. The final pellet was homogenized in 5 ml of 5 mM Tris/mM EDTA buffer at 4° C. with an Ultraturrax and used for the Ifenprodil-binding assay.
Nonspecific binding was estimated in the presence of 10 M CP101.606. The samples were incubated for 60 min. at 4° C.
(§3) Binding was terminated by filtration of the incubated membrane preparations using Filtermat B (Pharmacia, Uppsala Sweden) and a Micro Cell Harvester (Skatron, Lier, Norway). The Filtermat B had been presoaked with 1% polyethylenimine and carefully washed with 50 nM Tris/HCl-buffer pH=7.7 after the filtration to separate free and bound radioactivity.
For pipetting of the incubation mixture the robot Biomek2000 (Fa. Beckman) was used.
The IC50 values in the tables below were determined using the Hill-plot, 2-parameter-model.

[2] = target: T1, rat NR1/NR2B receptor; test: NR2B binding assay: inhibition of specific [3H]-Ifenprodil binding to the rat NR1/NR2B receptor; conditions: rat brain membranes, Hill-plot 2-parameter-model
Experimental: Inhibition of Specific Binding to the Rat NR1/NR2B Receptor
as §1
Membrane fractions were prepared and tested using standard techniques. At the time of the assay, 1 g of the brains was placed into 25 ml of 50 mM Tris/10 mM EDTA buffer, pH 7.1, (25 vol. per g of original tissue) and homogenized for 30 sec at 20000 rpm with an Ultraturrax T25 (Jahnke & Kunkel, IKA-Labortechnik, Staufen, Germany). The homogenate was centrifuged at 4° C. for 10 min at 48000 g (OPTIMA L-70, Beckman, Palo Alto, Calif. 94304, USA).
The supernatant was discarded and the pellet was homogenized on ice for 30 sec at 20000 rpm with an Ultraturrax and again centrifuged at 48000 g for 30 minutes at 4° C. The resulted pellet was resuspended in 25 ml of 50 mM Tris/10 mM EDTA buffer, homogenized for 30 sec with an Ultraturrax, aliquoted, frozen at −70° C. and stored until use.
as §2, with “aliquot” for “aliquote”, “pH 7.4,” for “pH=7.4,”, “rpm” for “U/min”, “This” for “This step”, “Tris/l mM” for “Tris/mM”, “assay as described in the following.” for “assay.”
Nonspecific binding was estimated in the presence of […] CP101.606. The samples were incubated for 60 min. at 4° C.
as §3, with “The incubation” for “Binding”, “the” for “the incubated”, “polyethylene imine” for “polyethylenimine”, “mM” for “nM”, “pH 7.7” for “pH=7.7”
The optimal amount of membrane preparation in the assay had been determined and optimized for each membrane preparation separately before the test.
For pipetting of the incubation mixture we routinely used the robot Biomek2000 (Fa. Beckman).
For determination of IC50 values the Hill-plot, 2-parameter-model was used.

[3] = target: hERG-receptor (Homo sapiens (Human), UniProt Q12809); test: HERGBD: inhibition of specific 3H-Dofetilide binding to the hERG-receptor; conditions: HEK cell membranes with human ERG, Hill-plot 2-parameter-model
Sequence of hERG-receptor (Q12809 whole entry): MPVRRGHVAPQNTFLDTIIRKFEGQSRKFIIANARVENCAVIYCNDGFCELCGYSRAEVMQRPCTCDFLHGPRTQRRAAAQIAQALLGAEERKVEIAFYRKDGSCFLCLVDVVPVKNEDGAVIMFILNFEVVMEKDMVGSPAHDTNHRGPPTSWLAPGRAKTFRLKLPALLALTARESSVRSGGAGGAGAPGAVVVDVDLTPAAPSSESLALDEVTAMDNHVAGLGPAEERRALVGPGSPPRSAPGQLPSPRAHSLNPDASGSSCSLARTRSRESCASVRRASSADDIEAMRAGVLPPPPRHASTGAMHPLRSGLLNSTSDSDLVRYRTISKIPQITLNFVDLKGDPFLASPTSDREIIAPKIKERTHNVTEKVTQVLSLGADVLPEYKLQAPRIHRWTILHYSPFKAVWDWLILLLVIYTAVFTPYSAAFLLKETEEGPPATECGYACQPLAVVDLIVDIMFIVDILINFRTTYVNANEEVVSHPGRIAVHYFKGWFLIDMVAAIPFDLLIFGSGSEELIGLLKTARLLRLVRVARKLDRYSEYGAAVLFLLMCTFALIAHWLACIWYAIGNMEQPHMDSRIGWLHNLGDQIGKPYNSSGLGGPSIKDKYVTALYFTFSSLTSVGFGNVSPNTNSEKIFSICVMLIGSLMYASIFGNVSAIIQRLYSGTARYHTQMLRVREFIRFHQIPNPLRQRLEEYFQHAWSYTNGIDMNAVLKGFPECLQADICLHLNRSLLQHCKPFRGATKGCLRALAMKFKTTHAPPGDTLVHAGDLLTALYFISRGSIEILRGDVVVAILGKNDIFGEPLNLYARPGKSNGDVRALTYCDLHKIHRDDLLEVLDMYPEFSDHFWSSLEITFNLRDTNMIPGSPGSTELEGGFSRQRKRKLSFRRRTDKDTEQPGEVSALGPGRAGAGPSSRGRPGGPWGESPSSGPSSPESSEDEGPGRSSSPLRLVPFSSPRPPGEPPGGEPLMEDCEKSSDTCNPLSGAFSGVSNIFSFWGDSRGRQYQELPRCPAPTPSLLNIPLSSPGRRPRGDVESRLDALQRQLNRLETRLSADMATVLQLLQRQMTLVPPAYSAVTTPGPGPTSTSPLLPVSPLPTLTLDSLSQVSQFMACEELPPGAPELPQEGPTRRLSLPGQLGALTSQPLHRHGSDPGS
Experimental: Inhibition of Specific Binding to the hERG-Receptor (HERGBD)
A HEK cell line with stable transfected human ERG receptor was used for the assay. The cells were grown adherently and maintained in DULBECCOS' MEM medium with 10% FBS, 1% non-essential amino acids, 1% Penicillin/Streptomycin and 400 μg/ml G418 (Calbiochem).
For binding assays and membrane preparations the cell culture medium was removed, cells were washed with PBS. Crude membranes for radioligand binding experiments were prepared by scraping the cells off the dishes in ice cold 20 mM HEPES/0.1 mM KCl/pH 7.2. The cell suspension was homogenized on ice (Ultra turrax, 3×20 sec.) and the homogenate was spun for 10 min (1° C., 1000 g, OPTIMA, SW28, 2800 U/min). The supernatant was than centrifuged for 40 min at 100000 g (1° C., OPTIMA, SW28, 23000 U/min). The membrane pellet was resuspended in 20 mM HEPES/0.1 mM KCl/pH 7.2, frozen and stored at −80° C.
After thawing on the day of the assay, the membrane suspension was diluted further with 20 mM HEPES/0.1 mM KCl/pH 7.2.
The incubation mixture of 200 μl contained 1.5 nmol/l 3H-Dofetilide, optimized amount of membrane preparation, 20 mM HEPES/0.1 mM KCl/(pH 7.2) and inhibitor in 1% DMSO. Nonspecific binding was estimated in the presence of […] Dofetilide. The samples were incubated for 90 min. at RT.
as §3, with “0.05 M” for “50 nM”, “radioactivity. The filters were counted in a scintillation counter (Betaplate 1205, Berthold, Wildbad, Germany) in order to determine the specific binding of [^3H]-Dofetilide.” for “radioactivity.”
The optimal amount of membrane preparation in the assay was determined and optimized for each membrane preparation separately in front of using the membranes in compound testing.
For pipetting of the incubation mixture we routinely use the robot Biomek2000 (Fa. Beckman).

T1 sequence (Q00960 27-1482, other chains not shown): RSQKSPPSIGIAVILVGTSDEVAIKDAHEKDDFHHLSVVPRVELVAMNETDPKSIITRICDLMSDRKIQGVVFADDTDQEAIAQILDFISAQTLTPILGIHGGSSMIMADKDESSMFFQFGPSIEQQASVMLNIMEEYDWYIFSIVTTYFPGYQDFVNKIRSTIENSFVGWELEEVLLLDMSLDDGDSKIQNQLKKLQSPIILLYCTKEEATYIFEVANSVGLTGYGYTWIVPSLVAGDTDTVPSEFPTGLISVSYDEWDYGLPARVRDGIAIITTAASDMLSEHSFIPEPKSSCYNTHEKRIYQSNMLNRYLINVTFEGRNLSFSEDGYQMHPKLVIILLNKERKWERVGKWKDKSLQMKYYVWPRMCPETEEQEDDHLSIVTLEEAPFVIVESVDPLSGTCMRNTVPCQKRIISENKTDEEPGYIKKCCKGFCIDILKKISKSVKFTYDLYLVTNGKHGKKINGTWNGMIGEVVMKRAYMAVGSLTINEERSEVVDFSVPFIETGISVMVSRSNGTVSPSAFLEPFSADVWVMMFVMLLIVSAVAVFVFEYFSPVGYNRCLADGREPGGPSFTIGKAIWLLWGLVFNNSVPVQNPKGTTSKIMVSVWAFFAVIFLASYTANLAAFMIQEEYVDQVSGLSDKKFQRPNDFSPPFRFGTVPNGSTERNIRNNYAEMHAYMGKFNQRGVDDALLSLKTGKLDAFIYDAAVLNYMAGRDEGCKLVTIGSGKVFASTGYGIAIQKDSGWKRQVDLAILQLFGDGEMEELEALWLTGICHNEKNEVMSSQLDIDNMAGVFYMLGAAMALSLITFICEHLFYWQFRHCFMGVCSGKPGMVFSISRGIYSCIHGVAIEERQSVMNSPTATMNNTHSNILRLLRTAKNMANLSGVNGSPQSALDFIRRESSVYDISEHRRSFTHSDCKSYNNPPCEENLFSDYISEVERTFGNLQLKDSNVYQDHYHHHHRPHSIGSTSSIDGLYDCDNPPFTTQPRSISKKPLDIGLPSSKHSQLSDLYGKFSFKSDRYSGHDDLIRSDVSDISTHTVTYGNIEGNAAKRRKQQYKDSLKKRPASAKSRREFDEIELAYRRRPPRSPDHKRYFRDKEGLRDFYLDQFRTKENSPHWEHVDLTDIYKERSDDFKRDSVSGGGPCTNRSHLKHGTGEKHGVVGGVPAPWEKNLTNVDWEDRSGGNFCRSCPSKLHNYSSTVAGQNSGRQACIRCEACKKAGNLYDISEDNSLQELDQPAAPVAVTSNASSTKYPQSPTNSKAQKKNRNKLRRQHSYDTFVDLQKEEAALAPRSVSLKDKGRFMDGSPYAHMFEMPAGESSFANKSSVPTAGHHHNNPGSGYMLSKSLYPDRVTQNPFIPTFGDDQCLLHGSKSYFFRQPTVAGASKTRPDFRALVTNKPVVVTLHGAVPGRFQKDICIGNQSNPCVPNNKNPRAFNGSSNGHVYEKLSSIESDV

Row | IC50 [1] [nM] | IC50 [2] [nM] | SMILES | IC50 [3] [µM]
1 | 6.84 | 6.84 | CCCCc1nccn1Cc1cn(-c2ccc(Cl)c(Cl)c2)nn1 [Example 37, 4-(2-Butyl-imidazol-1-ylmethyl)-1-(3,4-dichloro-phenyl)-1H-[1,2,3]triazole] | 0.585
2 | 526 | 526 | CC(C)(C)c1nccn1Cc1cn(-c2ccc(Cl)c(Cl)c2)nn1 [Example 38, 4-(2-tert-Butyl-imidazol-1-ylmethyl)-1-(3,4-dichloro-phenyl)-1H-[1,2,3]triazole] | 5.68
3 | 7.58 | 7.58 | Clc1ccc(-n2cc(Cn3ccnc3C3CCC3)nn2)cc1Cl [Example 39, 4-(2-Cyclobutyl-imidazol-1-ylmethyl)-1-(3,4-dichloro-phenyl)-1H-[1,2,3]triazole] | 1.74
4 | 26.2 | 26.2 | FCCc1nccn1Cc1cn(-c2ccc(Cl)c(Cl)c2)nn1 [Example 41, 1-(3,4-Dichloro-phenyl)-4-[2-(2-fluoro-ethyl)-imidazol-1-ylmethyl]-1H-[1,2,3]triazole] | 13.7
5 | 28.3 | 28.3 | Fc1ccc(-n2cc(Cn3ccnc3C3CC3)nn2)cc1Cl [Example 44] | 3.57
6 | 7.68 | 7.68 | CCCCc1nccn1Cc1cn(-c2ccc(F)c(Cl)c2)nn1 [Example 45, 4-(2-Butyl-imidazol-1-ylmethyl)-1-(3-chloro-4-fluoro-phenyl)-1H-[1,2,3]triazole] | 0.539
7 | 778 | 778 | Cc1nccn1Cc1cn(-c2ccc(Cl)cc2Cl)nn1 [Example 49, 1-(2,4-Dichloro-phenyl)-4-(2-methyl-imidazol-1-ylmethyl)-1H-[1,2,3]triazole] | 4.53
8 | 21.2 | 21.2 | Cc1nccn1Cc1cn(-c2ccc(Cl)c(F)c2)nn1 [Example 50, 1-(4-Chloro-3-fluoro-phenyl)-4-(2-methyl-imidazol-1-ylmethyl)-1H-[1,2,3]triazole] | 3.39
9 | 7.01 | 7.01 | Cc1nccn1Cc1cn(-c2ccc(F)c(Cl)c2)nn1 [Example 51, 1-(3-Chloro-4-fluoro-phenyl)-4-(2-methyl-imidazol-1-ylmethyl)-1H-[1,2,3]triazole] | 4.97
10 | 1180 | 1180 | COc1cc(F)ccc1-n1cc(Cn2ccnc2C)nn1 [Example 52, 1-(4-Fluoro-2-methoxy-phenyl)-4-(2-methyl-imidazol-1-ylmethyl)-1H-[1,2,3]triazole] | 41.7
11 | 26.5 | 26.5 | Cc1ccc(-n2cc(Cn3ccnc3C)nn2)cc1F [Example 53, 1-(3-Fluoro-4-methyl-phenyl)-4-(2-methyl-imidazol-1-ylmethyl)-1H-[1,2,3]triazole] | 6.41
12 | 5.32 | 5.32 | Cc1cc(-n2cc(Cn3ccnc3C)nn2)ccc1F [Example 54, 1-(4-Fluoro-3-methyl-phenyl)-4-(2-methyl-imidazol-1-ylmethyl)-1H-[1,2,3]triazole] | 6.21
13 | 1.64 | 1.64 | Cc1cc(-n2cc(Cn3ccnc3C)nn2)ccc1Cl [Example 55, 1-(4-Chloro-3-methyl-phenyl)-4-(2-methyl-imidazol-1-ylmethyl)-1H-[1,2,3]triazole] | 4.71
14 | 11.9 | 11.9 | Cc1nccn1Cc1cn(-c2ccc(Cl)c(C(F)(F)F)c2)nn1 [Example 56, 1-(4-Chloro-3-trifluoromethyl-phenyl)-4-(2-methyl-imidazol-1-ylmethyl)-1H-[1,2,3]triazole] | 6.46
15 | 7.21 | 7.21 | Cc1nccn1Cc1cn(-c2cccc(OC(F)(F)F)c2)nn1 [Example 57, 4-(2-Methyl-imidazol-1-ylmethyl)-1-(3-trifluoromethoxy-phenyl)-1H-[1,2,3]triazole] | 8.59
16 | 17.4 | 17.4 | Cc1nccn1Cc1cn(-c2cccc(C(F)(F)F)c2)nn1 [Example 58, 4-(2-Methyl-imidazol-1-ylmethyl)-1-(3-trifluoromethyl-phenyl)-1H-[1,2,3]triazole] | 15
17 | 46 | 46 | Cc1nccn1Cc1cn(-c2ccc(C(F)(F)F)cc2)nn1 [Example 59, 4-(2-Methyl-imidazol-1-ylmethyl)-1-(4-trifluoromethyl-phenyl)-1H-[1,2,3]triazole] | 6.27
18 | 3320 | 3320 | COc1cc(F)ccc1-n1cc(Cn2ccnc2C2CC2)nn1 [Example 62, 4-(2-Cyclopropyl-imidazol-1-ylmethyl)-1-(4-fluoro-2-methoxy-phenyl)-1H-[1,2,3]triazole] | 45.9
19 | 87.1 | 87.1 | Cc1ccc(-n2cc(Cn3ccnc3C3CC3)nn2)cc1F [Example 63, 4-(2-Cyclopropyl-imidazol-1-ylmethyl)-1-(3-fluoro-4-methyl-phenyl)-1H-[1,2,3]triazole] | 11.2

Row | SMILES | IC50 [1] [nM] | IC50 [2] [nM] | IC50 [3] [µM]
20 | OCCc1nccn1Cc1cn(-c2ccc(Cl)c(Cl)c2)nn1 [Example 40, 4-[2-(2-Hydroxyethyl)-imidazol-1-ylmethyl]-1-(3,4-dichloro-phenyl)-1H-[1,2,3]triazole] | 17.2 | 17.2 | 14.7
